pKi: −log10 of the molar value.

Experimental findings from patent US20100016366A1, “Novel Compounds Active as Muscarinic Receptor Antagonists” (priority 2008, published 2010) are described below.

For assay [1], the target named is T1, human muscarinic M3 receptor (Homo sapiens, UniProt P20309).
T1 construct: expressed in transfected cells; host or cells: CHO (CHO-K1) cells
Nature of the assay: hM3 competition binding assay (3H-NMS, CHO cell membranes). The note with it: CHO cell membranes expressing human M3; 3H-NMS at 5×KD, 24 hr at RT; IC50 corrected by Cheng-Prussoff. The method, then: Binding Affinity Assessment at the Human Recombinant M3 Muscarinic Receptor
Cell Pellets from CHO (Chinese Hamster Ovary) cells recombinantly expressing the human muscarinic M3 receptor were homogenised in 20 mM HEPES (pH7.4) and centrifuged at 48000×g for 20 min at 4° C. The pellet was re-suspended in buffer and the homogenisation and centrifugation steps repeated. The resulting pellet was re-suspended in 1 ml buffer per 1 ml original packed cell volume and the homogenisation step repeated. Protein estimation was carried out on the suspension and 1 ml aliquots of ˜1 mg/ml frozen at −80° C.
hM3 Competition Binding Assay Protocol
Membranes (5 µg/well) were incubated with ^3H-NMS (at a concentration 5×KD) plus/minus test compound for 24 hr at RT (room temperature) in a 1 ml polystyrene 96-well deep well block. The final assay volume was 200 µl, comprising of: 20 µl plus/minus test compound; 20 µl ^3H-NMS (Perkin Elmer NEN 636) and 160 µl membrane solution. Total Binding was defined with 0.1% DMSO; Non-Specific Binding was defined with 1 µM Atropine. Assay buffer was 20 mM Hepes (pH 7.4).
Once all assay components were added, plates were covered and incubated at room temperature for 24 hrs with shaking. The assay was terminated by rapidly filtering through GF/B Unifilter plates pre-soaked with 0.5% polyethylenimine, using a Packard filtermate harvester, the filter plate was then washed with 3×1 ml 4° C. assay buffer. The filter plates were dried at 45° C. for 1 hour. The bottoms of the filter plates were sealed and 50 µl/well of Microscint ‘0’ added, the top of the plates were sealed with a Topseal. Following 90 mins, the plates were read on an NXT Topcount (1 minute read time per well).
The resulting data was expressed as a percentage of the specific binding (Specific binding=Total binding−Non-Specific Binding). % specific binding versus test compound concentration was plotted to determine an IC50 from a sigmoid curve using an in-house data analysis programme. IC50 values corrected to Ki values by applying the Cheng-Prussoff equation: […]
where IC50 is the concentration of unlabelled drug which inhibits by 50% the specific radioligand binding. [L] is the free radioligand concentrations and KD and Ki are the equilibrium dissociation constants of the radioligand and unlabelled drug respectively.

The target in assay [2] is T1, human muscarinic M3 receptor. The assay is described as follows: Cell based potency assessment, hM3 β-lactamase assay (CHO cell β-lactamase). The note with it: CHO cells recombinantly expressing human M3, NFAT-β-lactamase reporter; inhibition of 80 nM carbamyl choline signal, 4 h; IC50 converted by Cheng-Prusoff. On the procedure:
Cell BASED POTENCY ASSESSMENT at the Human Recombinant M3 Muscarinic Receptor
M3 potency was determined in CHO-K1 cells transfected with the NFAT-Betalactamase gene. CHO (Chinese Hamster Ovary) cells recombinantly expressing the human muscarinic M3 receptor were transfected with the NFAT_β-Lac_Zeo plasmid. Cells were grown in DMEM with Glutamax-1, supplemented with 25 mM HEPES (Life Technologies 32430-027), containing 10% FCS (Foetal Calf Serum; Sigma F-7524), […] Sodium pyruvate (Sigma S-8636), NEAA (non-Essential Amino Acids; Invitrogen 11140-035) and 200 μg/ml Zeocin (Invitrogen R250-01).
hM3 β-Lactamase Assay Protocol
Cells were harvested for assay when they reached 80-90% confluency using enzyme free cell Dissociation Solution (Life technologies 13151-014) incubated with the cells for 5 min at 37° C. in an atmosphere containing 5% CO2. Detached cells were collected in warmed growth media and centrifuged at 2000 rpm for 10 min, washed in PBS (Phosphate Buffered Saline; Life Technologies 14190-094) and centrifuged again as just described. The cells were re-suspended at 2×10^5 cells/ml in growth medium (composition as described above). 20 μl of this cell suspension was added to each well of a 384 well black clear bottomed plate (Greiner Bio One 781091-PFI). The assay buffer used was PBS supplemented with 0.05% Pluronic F-127 (Sigma 9003-11-6) and 2.5% DMSO. Muscarinic M3 receptor signalling was stimulated using 80 nM carbamyl choline (Aldrich N240-9) incubated with the cells for 4 h at 37° C./5% CO2 and monitored at the end of the incubation period using a Tecan SpectraFluor+plate reader (λ−excitation 405 nm, emission 450 nm and 503 nm). M3 receptor antagonists under test were added to the assay at the beginning of the 4 h incubation period and compound activity measured as the concentration dependent inhibition of the carbamyl choline induced signal. Inhibition curves were plotted and IC50 values generated using a 4-parameter sigmoid fit and converted to Ki values using the Cheng-Prusoff correction and the KD value for carbamyl choline in the assay.

T1 sequence (P20309 whole entry): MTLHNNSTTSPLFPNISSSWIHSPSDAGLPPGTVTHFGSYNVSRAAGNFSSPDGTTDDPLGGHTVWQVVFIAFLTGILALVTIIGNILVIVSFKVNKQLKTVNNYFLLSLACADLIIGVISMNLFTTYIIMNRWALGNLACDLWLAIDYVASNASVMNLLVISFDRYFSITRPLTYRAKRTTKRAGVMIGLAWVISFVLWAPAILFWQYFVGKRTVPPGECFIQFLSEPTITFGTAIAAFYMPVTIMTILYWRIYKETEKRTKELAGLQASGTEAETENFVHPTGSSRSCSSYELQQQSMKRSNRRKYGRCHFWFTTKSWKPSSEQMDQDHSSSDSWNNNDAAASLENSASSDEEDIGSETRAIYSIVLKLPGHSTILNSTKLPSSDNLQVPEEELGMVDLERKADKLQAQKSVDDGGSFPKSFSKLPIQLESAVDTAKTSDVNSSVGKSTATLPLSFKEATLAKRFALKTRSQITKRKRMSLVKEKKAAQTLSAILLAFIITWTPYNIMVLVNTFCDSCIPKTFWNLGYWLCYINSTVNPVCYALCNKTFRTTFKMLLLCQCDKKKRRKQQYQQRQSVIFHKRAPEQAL

As a reminder, the pKi is the negative decadic logarithm of the Ki, by convention in mol/L. Regarding `O=C(Nc1ccccc1-c1ccccc1)OC1CCN(CCCCCCCCCNCc2cc(F)cc(Cl)c2O)CC1` [Example 3, Biphenyl-2-yl-carbamic acid 1-[9-(3-chloro-5-fluoro-2-hydroxy-benzylamino)-nonyl]-piperidin-4-yl ester], the pKi was 8.63 in assay [1] and 9.11 in assay [2].
On to `O=C(Nc1ccccc1-c1ccccc1)OC1CCN(CCCCCCCCCNCc2cc(Cl)c(O)c(Cl)c2)CC1` [Example 22, Biphenyl-2-yl-carbamic acid 1-[9-(3,5-dichloro-4-hydroxy-benzylamino)-nonyl]-piperidin-4-yl ester], for which the pKi in assay [1] was 9.06; in assay [2] it was 9.83.
`O=C(Nc1ccccc1-c1ccccc1)OC1CCN(CCCCCCCCCNCc2cc(Cl)ccc2O)CC1` [Example 32, Biphenyl-2-yl-carbamic acid 1-[9-(5-chloro-2-hydroxy-benzylamino)-nonyl]-piperidin-4-yl ester]: the pKi in assay [1] was 8.52; in assay [2], 8.87.
In the case of `O=C(Cc1ccc(O)c(Cl)c1)NCCCCCCCCCN1CCC(OC(=O)Nc2ccccc2-c2ccccc2)CC1` [Example 4, Biphenyl-2-yl-carbamic acid 1-{9-[2-(3-chloro-4-hydroxy-phenyl)-acetylamino]-nonyl}-piperidin-4-yl ester], the pKi in assay [1] was 8.92; in assay [2], 10.38.
As for `CN(CCCCCCCCCN1CCC(OC(=O)Nc2ccccc2-c2ccccc2)CC1)C(=O)c1ccc(F)c(O)c1` [Example 16, Biphenyl-2-yl-carbamic acid 1-{9-[(4-fluoro-3-hydroxy-benzoyl)-methyl-amino]-nonyl}-piperidin-4-yl ester], the pKi in assay [1] was 8.53; in assay [2], 9.41.
On to `O=C(Nc1ccccc1-c1ccccc1)OC1CCN(CCCCCCCCCNCc2cccc(O)c2F)CC1` [Example 2, Biphenyl-2-yl-carbamic acid 1-[9-(2-fluoro-3-hydroxy-benzylamino)-nonyl]-piperidin-4-yl ester], for which the pKi was 8.98 in assay [1] and 9.08 in assay [2].
For `O=C(Nc1ccccc1-c1ccccc1)OC1CCN(CCCCCCCCCNCc2cc(F)cc(F)c2O)CC1` [Example 29, Biphenyl-2-yl-carbamic acid 1-[9-(2-hydroxy-3,5-difluoro-benzylamino)-nonyl]-piperidin-4-yl ester] the same measures were 8.87 and 9.09.
Regarding `O=C(Nc1ccccc1-c1ccccc1)OC1CCN(CCCCCCCCCNC(=O)c2cc(Cl)c(O)c(Cl)c2)CC1` [Example 25, Biphenyl-2-yl-carbamic acid 1-[9-(4-hydroxy-3,5-dichloro-benzoylamino)-nonyl]-piperidin-4-yl ester], the pKi in assay [1] was 8.36; in assay [2] it was 9.07.
For the compound `O=C(Nc1ccccc1-c1ccccc1)OC1CCN(CCCCCCCCCNC(=O)c2ccc(O)c(F)c2F)CC1` [Example 23, Biphenyl-2-yl-carbamic acid 1-[9-(2,3-difluoro-4-hydroxy-benzoylamino)-nonyl]-piperidin-4-yl ester], the pKi in assay [1] was 8.62; in assay [2], 9.56.
With `O=C(Cc1ccc(O)c(F)c1)NCCCCCCCCCN1CCC(OC(=O)Nc2ccccc2-c2ccccc2)CC1` [Example 10, Biphenyl-2-yl-carbamic acid 1-{9-[2-(3-fluoro-4-hydroxy-phenyl)-acetylamino]-nonyl}-piperidin-4-yl ester], the pKi in assay [1] is 8.97; in assay [2], 9.10.
Regarding `O=C(Nc1ccccc1-c1ccccc1)OC1CCN(CCCCCCCCCNC(=O)c2ccc(O)cc2Cl)CC1` [Example 21, Biphenyl-2-yl-carbamic acid 1-[9-(2-chloro-4-hydroxy-benzoylamino)-nonyl]-piperidin-4-yl ester], the figures for the pKi in assay [1] and in assay [2] were 8.90 and 9.17, respectively.
Regarding `O=C(Nc1ccccc1-c1ccccc1)OC1CCN(CCCCCCCCCNC(=O)c2cccc(Cl)c2O)CC1` [Example 11, Biphenyl-2-yl-carbamic acid 1-[9-(3-chloro-2-hydroxy-benzoylamino)-nonyl]-piperidin-4-yl ester], the pKi in assay [1] was 8.65; in assay [2], 8.09.
